Patent US20250134888A1, “INHIBITORS OF MALIC ENZYME 1” (Cornell University, priority 2022, published 2025)
Like-named read-outs stand apart in the source and are kept apart here.

Tests used:
[1] = test system: CAPAN1; assay: Activity in Capan1 cells (ME1 responder line); type: cell-based; conditions: Homo sapiens
Protocol: (§1) Compound 1-4 were tested (Table 1) for inhibition of ME1. […] Capan1 is an ME1 responder line. H23 is an ME1 non-responder line.
(§2) Compound 5-7 were tested (Table 2) for inhibition of ME1. […] Capan1 is an ME1 responder line. H23 is an ME1 non-responder line.

[2] = test system: H23; assay: Activity in H23 cells (ME1 non-responder line); type: cell-based; conditions: Homo sapiens
Protocol: as §1, §2

[3] = Permeability pH 6.5; type: in vitro ADME; conditions: PAMPA
[4] = CAPAN-1, Table 1, read-out: CAPAN1 IC50/EC50
[5] = NCI-H23, Table 1, read-out: H23 IC50/EC50
[6] = CAPAN-1, Table 2, read-out: CAPAN1 IC50/EC50
[7] = NCI-H23, Table 2, read-out: H23 IC50/EC50

Row | SMILES | EC50 [1, 4] [µM] | EC50 [2, 5] [µM] | Papp ([3]; Table 1) [×10⁻⁶ cm/s] | EC50 [1, 6] [µM] | EC50 [2, 7] [µM] | Papp ([3]; Table 2) [×10⁻⁶ cm/s]
1 | CC1CCN(c2ccc3nnc(-c4cccc(CN(C)C)c4)n3n2)CC1 [Compound 1] | 16.1 | 8.1 | 26.5 |  |  | 
2 | CCN1CCC(C(=O)Nc2cccc(-c3nnc4ccc(N5CCC(C)CC5)nn34)c2)CC1 [Compound 2] | 3.1 | 8.6 | < 0.3 |  |  | 
3 | CC1CCN(c2nc3c(c(N4CCc5n[nH]cc5C4)n2)CS(=O)(=O)C3)CC1 [Compound 3] | 26.6 | 4.8 | > 30 |  |  | 
4 | Cc1nn(-c2ccc(Cl)cc2)c2ncc(C(=O)NC3CCN(C)CC3)cc12 [Compound 4] | 1.8 |  | > 30 |  |  | 
5 | Cc1cc(=O)c(O)c(CN2CC=C(c3ccc(F)cc3)CC2)n1C [Compound 7] |  |  |  | 26.6 | 5.7 | 

Results, then the compound that gave them:

Row | EC50 [1, 4] [µM] | EC50 [2, 5] [µM] | Papp ([3]; Table 1) [×10⁻⁶ cm/s] | EC50 [1, 6] [µM] | EC50 [2, 7] [µM] | Papp ([3]; Table 2) [×10⁻⁶ cm/s] | SMILES
6 |  |  |  | 2.4 | 8.6 | 15.1 | Cc1cc(=O)c(O)cn1CCN1CCCc2ccccc21 [Compound 5]
7 |  |  |  | 0.78 | 1.7 | 18.1 | Cc1cc(=O)c(O)cn1CCCc1ccc(Cl)cc1 [Compound 6]
